Series [1] has as its target T1, CYP2C8 (Homo sapiens, UniProt P10632).
T1 sequence (P10632 1-490): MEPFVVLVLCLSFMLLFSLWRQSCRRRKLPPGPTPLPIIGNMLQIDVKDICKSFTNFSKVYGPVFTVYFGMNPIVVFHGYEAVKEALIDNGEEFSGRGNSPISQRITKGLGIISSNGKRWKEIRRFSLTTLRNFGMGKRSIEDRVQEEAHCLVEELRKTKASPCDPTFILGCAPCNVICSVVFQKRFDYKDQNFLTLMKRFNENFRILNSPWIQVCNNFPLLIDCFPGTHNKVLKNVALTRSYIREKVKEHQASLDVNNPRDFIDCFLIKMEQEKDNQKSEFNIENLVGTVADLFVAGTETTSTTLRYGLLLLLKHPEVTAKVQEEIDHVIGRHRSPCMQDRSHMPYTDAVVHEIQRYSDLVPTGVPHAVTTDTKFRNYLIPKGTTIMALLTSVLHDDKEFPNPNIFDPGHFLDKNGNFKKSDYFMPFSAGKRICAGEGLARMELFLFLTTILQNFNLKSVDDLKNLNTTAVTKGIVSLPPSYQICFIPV
Nature of the series: in vitro.

Series [2] addresses T1, CYP2C8.
The target of a further series is T2, CYP2B6 (Homo sapiens, UniProt P20813).
T2 sequence (P20813 1-491): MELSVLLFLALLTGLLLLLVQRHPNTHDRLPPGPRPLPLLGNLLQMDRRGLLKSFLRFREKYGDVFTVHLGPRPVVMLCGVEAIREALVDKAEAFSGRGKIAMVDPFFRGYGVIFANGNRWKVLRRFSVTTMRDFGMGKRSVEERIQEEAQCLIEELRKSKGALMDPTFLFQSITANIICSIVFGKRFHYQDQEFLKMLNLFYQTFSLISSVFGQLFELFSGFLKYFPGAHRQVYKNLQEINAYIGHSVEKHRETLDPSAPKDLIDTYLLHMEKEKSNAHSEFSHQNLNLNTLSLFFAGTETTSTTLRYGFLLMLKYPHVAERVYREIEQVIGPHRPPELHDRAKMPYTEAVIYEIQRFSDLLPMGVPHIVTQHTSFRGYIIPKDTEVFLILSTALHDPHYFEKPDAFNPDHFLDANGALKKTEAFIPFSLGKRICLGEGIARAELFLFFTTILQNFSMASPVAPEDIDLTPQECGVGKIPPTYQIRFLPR
Briefly: Fluorimetric CYP inhibition assay, CYP2B6-EFC. The following applies: read-out: IC50 CYP2B6; substrate EFC.

Another series relates to Guinea pigs. Briefly: Hypolipidemic effect in Guinea pigs model (plasma TG, cholesterol, lipoproteins). It counts as in vivo, Guinea pig. The following applies: Simvastatin table: gavage 10 mg/kg/bw, 21 days, n = 8. As for the experimental part: • Guinea pigs (400-500 g) were obtained from Harlan (Israel) or Harlan (Netherlands). Animals were treated by gavage with Medica 16αα, Medica 16ββ and Simvastatin as indicated in 1% CMC for the specified treatment periods. During treatment period the animals were weighed and observed daily.
Non-fasted guinea pigs were anesthetized with ketamine (75 mg/kg body weight) and xylazine (6 mg/kg body weight), followed by S.C. abdominal injections of 2% lignocaine. Anesthetized animals were bled into tubes containing EDTA. Plasma chylomicrons were removed by centrifugation (20 min, 30K rpm, TST 55.5 rotor). Plasma TG was assayed by Roche/Hitachi kit. Plasma cholesterol was assayed by Roche Diagnostic's kit.
Chylomicrons-free plasma was subjected to continuous KBr-gradient centrifugation (24 h, 40K rpm, SW41 rotor), followed by fractionating gradient tubes into 0.5 ml fractions. TG, cholesterol and protein of each fraction were measured as described above. […]
Guinea pigs were treated by gavage with M16αα, M16ββ or with Simvastatin, weighed and observed daily. Plasma triglycerides (TG) and cholesterol, as well as plasma lipoproteins and their composition were examined on days 21 and 22 (as specified in the following tables) of the experiments, as described in Experimental procedures. As clearly shown by Table 3 and FIG. 1, treatment with M16αα decreases plasma triglycerides (TG).

The target of another series is T3, CYP1A2 (Homo sapiens, UniProt P05177).
T3 sequence (P05177 1-516): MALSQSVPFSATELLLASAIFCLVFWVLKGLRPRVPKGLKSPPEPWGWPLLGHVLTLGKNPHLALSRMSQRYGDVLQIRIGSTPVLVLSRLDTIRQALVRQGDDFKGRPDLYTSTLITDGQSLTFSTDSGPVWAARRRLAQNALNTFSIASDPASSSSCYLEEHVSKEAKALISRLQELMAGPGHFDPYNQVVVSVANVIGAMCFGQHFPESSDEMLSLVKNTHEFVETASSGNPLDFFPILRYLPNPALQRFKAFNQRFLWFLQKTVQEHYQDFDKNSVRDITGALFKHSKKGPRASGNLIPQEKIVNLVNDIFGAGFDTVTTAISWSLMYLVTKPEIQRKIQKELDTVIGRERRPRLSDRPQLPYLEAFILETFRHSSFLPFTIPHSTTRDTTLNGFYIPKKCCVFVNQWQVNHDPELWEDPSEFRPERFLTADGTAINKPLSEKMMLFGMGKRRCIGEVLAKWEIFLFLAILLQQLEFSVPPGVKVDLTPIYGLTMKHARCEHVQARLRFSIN
Nature of the series: in vitro.

Another series has as its target CYP2C9 (Homo sapiens, UniProt P11712). Nature of the series: Fluorimetric CYP inhibition assay, CYP2C9-MFC. The following applies: human, MFC; for inhibition at 0 μM: positive control 0.00 μM (second line); for inhibition at 0.01 μM: positive control 0.01 μM (first line); for inhibition at 0.02 μM: positive control 0.02 μM; for inhibition at 0.06 μM: positive control 0.06 μM; for inhibition at 1.67 μM: positive control 1.67 μM.

By inhibition is commonly meant the change of the read-out against control, counted positive when it falls. A high value points to a response far below the control. For orientation: IC50 means the concentration needed to halve the response being measured.

CYP2C9, sequence (P11712 whole entry): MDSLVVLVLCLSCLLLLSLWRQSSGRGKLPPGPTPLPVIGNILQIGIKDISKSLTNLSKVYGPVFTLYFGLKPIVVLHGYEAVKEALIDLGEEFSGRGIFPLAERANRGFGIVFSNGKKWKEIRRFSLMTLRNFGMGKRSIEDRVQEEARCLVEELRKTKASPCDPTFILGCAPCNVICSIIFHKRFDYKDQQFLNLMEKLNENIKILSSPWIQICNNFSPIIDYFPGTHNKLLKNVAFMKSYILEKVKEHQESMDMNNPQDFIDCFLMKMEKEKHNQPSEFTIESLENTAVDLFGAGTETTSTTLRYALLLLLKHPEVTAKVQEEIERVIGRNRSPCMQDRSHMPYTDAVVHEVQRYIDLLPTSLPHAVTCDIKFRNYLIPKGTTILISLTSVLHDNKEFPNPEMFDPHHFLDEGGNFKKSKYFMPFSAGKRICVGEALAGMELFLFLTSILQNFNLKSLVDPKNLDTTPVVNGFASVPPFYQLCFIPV

Regarding `O=c1c(O)c(-c2ccc(O)c(O)c2)oc2cc(O)cc(O)c12` [Quercetin, reference compound], on CYP2C8 [1] (% Inhibition (set 1)), the inhibition at 0.05 μM came out at 8%, the inhibition at 0.41 μM was determined as 16%, the inhibition at 1.23 μM is 51% and the inhibition at 3.7 μM is 88%. At CYP2C8 [1] (% Inhibition (set 1)), this molecule displayed an inhibition at 11.11 μM of 100%, an inhibition at 33.33 μM of 100% and an inhibition at 100 μM of 100%. At CYP2C8 [1] (% Inhibition (set 2)), this molecule yielded an inhibition at 0.05 μM of 0%, an inhibition at 0.41 μM of 9%, an inhibition at 1.23 μM of 32% and an inhibition at 3.7 μM of 89%. On CYP2C8 [1] (% Inhibition (set 2)), this molecule showed an inhibition at 11.11 μM of 98%, an inhibition at 33.33 μM of 100% and an inhibition at 100 μM of 100%. On CYP2C8 [2], this molecule had an IC50 of 1.4 µM. Moreover, the “% Inhibition (set 2)” value at CYP2C8 [2] (0.05 μM) was 0%.
Turning to `N[C@@H]1C[C@H]1c1ccccc1` (racemic) [Tranylcypromine, reference compound], on CYP2B6, the IC50 was found to be 5.9 µM.
Take `CCC(C)(C)C(=O)O[C@H]1C[C@@H](C)C=C2C=C[C@H](C)[C@H](CC[C@@H]3C[C@@H](O)CC(=O)O3)[C@H]21` [Simvastatin, reference compound]: the “Plasma TG” value in the series with Guinea pigs amounted to 83 ± 16 mg %. In the series on Guinea pigs (*p < 0.05), the Plasma cholesterol is on record as 23 ± 2.0* mg %.
Regarding `Cc1nc2c([nH]1)c(=O)n(C)c(=O)n2Cc1ccco1` [Furafylline, reference compound], at CYP1A2 (% Inhibition (set 1)), the inhibition at 5.56 μM turned out to be 90%. This molecule displayed an inhibition at 50 μM against CYP1A2 (% Inhibition (set 2)) of 99%.
At CYP2C9 (% Inhibition (set 1)), `Nc1ccc(S(=O)(=O)Nc2ccnn2-c2ccccc2)cc1` [Sulfaphenazole] displayed an inhibition at 0 μM of 0%, an inhibition at 0.01 μM of 0%, an inhibition at 0.02 μM of 3% and an inhibition at 0.06 μM of 11%. Moreover, the inhibition at 1.67 μM against CYP2C9 (% Inhibition (set 1)) is 76%. Also, the inhibition at 5 μM on CYP2C9 (% Inhibition (set 1), positive control 5.00 μM) was found to be 89%. Moreover, on CYP2C9 (% Inhibition (set 2)), the inhibition at 0 μM is 0%, the inhibition at 0.01 μM is 1%, the inhibition at 0.02 μM was found to be 3% and the inhibition at 0.06 μM came out at 6%. Further, the inhibition at 1.67 μM against CYP2C9 (% Inhibition (set 2)) turned out to be 74%.

Source of the values: patent US20100240683A1, “COMBINATION THERAPY, COMPOSITION AND METHODS FOR THE TREATMENT OF CARDIOVASCULAR DISORDERS” (Syndromex Ltd., priority 2007, published 2010).
